{"source": "patent US9695155B2", "about": "“Herbicidal substituted pyrimidinyloxy benzene compounds” (E. I. DU PONT DE NEMOURS AND COMPANY, priority 2013, dated 2017)", "key": {"[1]": {"test_system": "ducksalad", "assay": "Test C flooded paddy test", "type": "in vivo, Heteranthera limosa", "details": "Flood, scale 0 to 100 (0 no effect, 100 complete control), 13 to 15 days", "how_it_was_run": "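Ratings were visual and made relative to untreated controls after 13 to 15 greenhouse days.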"}, "[2]": {"test_system": "fall panicum", "assay": "Test E postemergence", "type": "in vivo, Panicum dichotomiflorum", "from_the_text": "(§1) Seeds of plant species selected from corn (Zea mays), soybean (Glycine max), velvetleaf (Abutilon theophrasti), lambsquarters (Chenopodium album), wild poinsettia (Euphorbia heterophylla), palmer pigweed (Amaranthus palmeri), waterhemp (common waterhemp, Amaranthus rudis), surinam grass (Brachiaria decumbens), large (Lg) crabgrass (Digitaria sanguinalis), Brazilian crabgrass (Digitaria horizontalis), fall panicum (Panicum dichotomiflorum), giant foxtail (Setaria faberii), green foxtail (Setaria viridis), goosegrass (Eleusine indica), johnsongrass (Sorghum halepense), ragweed (common ragweed, Ambrosia elatior), barnyardgrass (Echinochloa crus-galli), sandbur (southern sandbur, Cenchrus echinatus), arrowleaf sida (Sida rhombifolia), Italian ryegrass (Lolium multiflorum), dayflower (Virginia (VA) dayflower, Commelina virginica), field bindweed (Convolvulus arvensis), morningglory (Ipomoea coccinea), nightshade (eastern black nightshade, Solanum ptycanthum), kochia (Kochia scoparia), yellow nutsedge (Cyperus esculentus), cocklebur (common cocklebur, Xanthium strumarium), smartweed (ladysthumb smartweed, and hairy beggarticks (Bidens pilosa), were planted into a silt loam soil and treated preemergence with test chemicals formulated in a non-phytotoxic solvent mixture which included a surfactant.\n(§2) At the same time, plants from these crop and weed species and also horseweed (Canada horseweed, Conyza canadensis), waterhemp_RES1, (ALS & Triazine resistant common waterhemp, Amaranthus rudis), and waterhemp_RES2, (ALS & HPPD resistant common waterhemp, Amaranthus rudis) were planted in pots containing Redi-Earth® planting medium (Scotts Company, 14111 Scottslawn Road, Marysville, Ohio 43041) comprising spaghnum peat moss, vermiculite, wetting agent and starter nutrients were treated with postemergence applications of test chemicals formulated in the same manner. Plants ranged in height from 2 to 18 cm for postemergence treatments (1- to 4-leaf stage). Treated plants and controls were maintained in a greenhouse for 14 to 21 days, after which time all species were compared to controls and visually evaluated. Plant response ratings, summarized in Table E, are based on a scale of 0 to 100 where 0 is no effect and 100 is complete control. A dash (-) response means no test result."}, "[3]": {"test_system": "sandbur", "assay": "Test E postemergence", "type": "in vivo, Cenchrus echinatus", "from_the_text": "as §1, §2"}, "[4]": {"test_system": "wild poinsettia", "assay": "Test E postemergence", "type": "in vivo, Euphorbia heterophylla", "from_the_text": "as §1, §2"}, "[5]": {"test_system": "field bindweed", "assay": "Test E postemergence", "type": "in vivo, Convolvulus arvensis", "from_the_text": "as §1, §2"}, "[6]": {"test_system": "waterhemp", "assay": "Test E postemergence", "type": "in vivo, Amaranthus rudis", "from_the_text": "as §1, §2"}, "[7]": {"test_system": "Brazilian crabgrass", "assay": "Test E postemergence", "type": "in vivo, Digitaria horizontalis", "from_the_text": "as §1, §2"}, "[8]": {"test_system": "hairy beggarticks", "assay": "Test E postemergence", "type": "in vivo, Bidens pilosa", "from_the_text": "as §1, §2"}, "[9]": {"test_system": "corn", "assay": "Test E postemergence", "type": "in vivo, Zea mays", "from_the_text": "as §1, §2"}, "[10]": {"test_system": "palmer pigweed", "assay": "Test E postemergence", "type": "in vivo, Amaranthus palmeri", "from_the_text": "as §1, §2"}, "[11]": {"details": "Postemergence, 31 g ai/ha, scale 0 to 100"}, "[12]": {"details": "Postemergence, 62 g ai/ha, scale 0 to 100"}, "[13]": {"details": "Postemergence, 125 g ai/ha, scale 0 to 100"}, "[14]": {"details": "postemergence, 16 g ai/ha, scale 0 to 100, 0 no effect, 100 complete control"}}}
{"smiles": "FC(F)c1cnn(-c2ccccc2Oc2ncc(Cl)cn2)c1", "note": "[Compound 80, 5-chloro-2-[2-[4-(difluoromethyl)-1H-pyrazol-1-yl]phenoxy]pyrimidine]", "values": [{"measurement": "Plant response rating, Ducksalad", "setting": "[1]; 250 g ai/ha", "value": 50}, {"measurement": "Plant response rating, Ducksalad", "setting": "[1]; 500 g ai/ha", "value": 75}, {"measurement": "Plant response rating, Ducksalad", "setting": "[1]; 1000 g ai/ha", "value": 80}, {"measurement": "Plant response rating, Ducksalad", "setting": "[1]; 2000 g ai/ha", "value": 80}]}
{"smiles": "Clc1cnc(Oc2cccc(Cl)c2-n2cc(I)cn2)nc1", "note": "[Compound 181]", "values": [{"measurement": "Plant response rating, Panicum, Fall", "setting": "[2]; [11]", "value": 20}, {"measurement": "Plant response rating, Panicum, Fall", "setting": "[2]; [12]", "value": 50}, {"measurement": "Plant response rating, Panicum, Fall", "setting": "[2]; [13]", "value": 30}, {"measurement": "Plant response rating, Panicum, Fall", "setting": "[2]; [14]", "value": 20}, {"measurement": "Plant response rating, Sandbur", "setting": "[3]; [11]", "value": 15}, {"measurement": "Plant response rating, Sandbur", "setting": "[3]; [12]", "value": 10}, {"measurement": "Plant response rating, Sandbur", "setting": "[3]; [13]", "value": 20}, {"measurement": "Plant response rating, Sandbur", "setting": "[3]; [14]", "value": 5}, {"measurement": "Plant response rating, Poinsettia, Wild", "setting": "[4]; [11]", "value": 50}, {"measurement": "Plant response rating, Poinsettia, Wild", "setting": "[4]; [12]", "value": 50}, {"measurement": "Plant response rating, Poinsettia, Wild", "setting": "[4]; [13]", "value": 60}, {"measurement": "Plant response rating, Poinsettia, Wild", "setting": "[4]; [14]", "value": 40}, {"measurement": "Plant response rating, Field Bindweed", "setting": "[5]; [11]", "value": 40}, {"measurement": "Plant response rating, Field Bindweed", "setting": "[5]; [12]", "value": 40}, {"measurement": "Plant response rating, Field Bindweed", "setting": "[5]; [13]", "value": 50}, {"measurement": "Plant response rating, Field Bindweed", "setting": "[5]; [14]", "value": 25}, {"measurement": "Plant response rating, Waterhemp", "setting": "[6]; [11]", "value": 95}, {"measurement": "Plant response rating, Waterhemp", "setting": "[6]; [12]", "value": 95}, {"measurement": "Plant response rating, Waterhemp", "setting": "[6]; [13]", "value": 98}, {"measurement": "Plant response rating, Waterhemp", "setting": "[6]; [14]", "value": 65}, {"measurement": "Plant response rating, Crabgrass, Brazil", "setting": "[7]; [11]", "value": 20}, {"measurement": "Plant response rating, Crabgrass, Brazil", "setting": "[7]; [12]", "value": 30}, {"measurement": "Plant response rating, Crabgrass, Brazil", "setting": "[7]; [13]", "value": 30}, {"measurement": "Plant response rating, Crabgrass, Brazil", "setting": "[7]; [14]", "value": 20}, {"measurement": "Plant response rating, Beggarticks", "setting": "[8]; [11]", "value": 40}, {"measurement": "Plant response rating, Beggarticks", "setting": "[8]; [12]", "value": 50}, {"measurement": "Plant response rating, Beggarticks", "setting": "[8]; [13]", "value": 60}, {"measurement": "Plant response rating, Beggarticks", "setting": "[8]; [14]", "value": 40}, {"measurement": "Plant response rating, Corn", "setting": "[9]; [11]", "value": 5}, {"measurement": "Plant response rating, Corn", "setting": "[9]; [12]", "value": 15}, {"measurement": "Plant response rating, Corn", "setting": "[9]; [13]", "value": 15}, {"measurement": "Plant response rating, Corn", "setting": "[9]; [14]", "value": 5}, {"measurement": "Plant response rating, Pigweed, Palmer", "setting": "[10]; [11]", "value": 70}, {"measurement": "Plant response rating, Pigweed, Palmer", "setting": "[10]; [12]", "value": 90}, {"measurement": "Plant response rating, Pigweed, Palmer", "setting": "[10]; [13]", "value": 98}, {"measurement": "Plant response rating, Pigweed, Palmer", "setting": "[10]; [14]", "value": 80}]}
{"smiles": "FC(F)c1cnn(-c2c(Cl)cccc2Oc2ncc(Cl)cn2)c1", "note": "[Compound 192]", "values": [{"measurement": "Plant response rating, Ducksalad", "setting": "[1]; 31 g ai/ha", "value": 0}, {"measurement": "Plant response rating, Ducksalad", "setting": "[1]; 62 g ai/ha", "value": 0}, {"measurement": "Plant response rating, Ducksalad", "setting": "[1]; 125 g ai/ha", "value": 70}, {"measurement": "Plant response rating, Ducksalad", "setting": "[1]; 250 g ai/ha", "value": 75}]}
{"smiles": "Fc1cccc(Oc2ncc(Cl)cn2)c1-n1cc(C(F)F)nn1", "note": "[Compound 141, 5-chloro-2-[2-[4-(difluoromethyl)-1H-1,2,3-triazol-1-yl]-3-fluorophenoxy]pyrimidine]", "values": [{"measurement": "Plant response rating, Ducksalad", "setting": "[1]; 31 g ai/ha", "value": 65}, {"measurement": "Plant response rating, Ducksalad", "setting": "[1]; 62 g ai/ha", "value": 80}, {"measurement": "Plant response rating, Ducksalad", "setting": "[1]; 125 g ai/ha", "value": 95}, {"measurement": "Plant response rating, Ducksalad", "setting": "[1]; 250 g ai/ha", "value": 100}]}
{"smiles": "Fc1cccc(Oc2ncc(Cl)cn2)c1-n1cc(Cl)cn1", "note": "[Compound 177]", "values": [{"measurement": "Plant response rating, Ducksalad", "setting": "[1]; 31 g ai/ha", "value": 20}, {"measurement": "Plant response rating, Ducksalad", "setting": "[1]; 62 g ai/ha", "value": 60}, {"measurement": "Plant response rating, Ducksalad", "setting": "[1]; 125 g ai/ha", "value": 85}, {"measurement": "Plant response rating, Ducksalad", "setting": "[1]; 250 g ai/ha", "value": 95}]}
{"smiles": "N#Cc1cccc(Oc2ncc(Cl)cn2)c1-n1cc(OC(F)F)cn1", "note": "[Compound 97]", "values": [{"measurement": "Plant response rating, Ducksalad", "setting": "[1]; 31 g ai/ha", "value": 0}, {"measurement": "Plant response rating, Ducksalad", "setting": "[1]; 62 g ai/ha", "value": 40}, {"measurement": "Plant response rating, Ducksalad", "setting": "[1]; 125 g ai/ha", "value": 75}, {"measurement": "Plant response rating, Ducksalad", "setting": "[1]; 250 g ai/ha", "value": 80}]}
